Test results published in PubChem BioAssay (NCI).
Where “and” joins values, the source holds several entries; their conditions need not be identical. Equal entries are not always repeated.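 How tested: cells in 96-well plates exposed to compound for 48 hours at five concentrations. At the GI50, growth is halved. At the TGI there is no net growth.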

How the values were obtained:
Assay in all cases: NCI anticancer screen, dose series, 48 h
T-47D breast = tested on: T-47D breast
MDA-N = tested on: MDA-N
RXF-631 renal = tested on: RXF-631 renal
M19-MEL melanoma = tested on: M19-MEL melanoma
LXFL 529 NSCLC = tested on: LXFL 529 NSCLC
KM20L2 colon = tested on: KM20L2 colon
DMS 273 small cell lung = tested on: DMS 273 small cell lung
XF 498 CNS = tested on: XF 498 CNS
SNB-78 CNS = tested on: SNB-78 CNS

| Compound | GI50 (T-47D breast) | TGI (T-47D breast) | TGI (M19-MEL melanoma) | TGI (LXFL 529 NSCLC) | TGI (KM20L2 colon) | TGI (DMS 273 small cell lung) | TGI (SNB-78 CNS) | also measured |
| --- | --- | --- | --- | --- | --- | --- | --- | --- |
| CC12CC=CCC1CCC1C2CCC2(C)C(c3ccc(=O)oc3)CCC12O (stereo not given) | 0.23 µM | 0.887 µM | – | – | – | – | – | – |
| C/C=C(/C)c1cnc(CC(C)C)c(=O)[nH]1 | – | > 100 µM | – | – | – | – | – | TGI (MDA-N): > 100 µM |
| Cn1cc(C2=C(c3cn(C)c4cc(N)ccc34)C(=O)NC2=O)c2ccccc21 | 5.7 µM | > 21.6 µM | – | – | – | – | – | – |
| CC(=O)c1cc(-c2ccccc2N)n(-c2ccc3c(c2)OCO3)c1C | 0.852 µM | > 100 µM | – | – | – | – | – | – |
| Nc1ccc(C(=O)CC2(O)C(=O)Nc3c(Cl)cc(Cl)cc32)cc1 (stereo not given) | – | – | > 100 µM | > 100 µM | > 100 µM | – | – | TGI (RXF-631 renal): 79.8 µM |
| Cc1nn(CNc2ccccc2C(F)(F)F)c(=S)n1/N=C/c1ccc(F)cc1 | > 100 µM | > 100 µM | – | – | – | – | – | – |
| COc1ccc(N2C(=O)C3c4[nH]c5ccccc5c4C4CCCCCCC4C3C2=O)cc1 (stereo not given) | – | – | > 80.3 µM | 17.1 µM | > 100 µM | 18.6 µM | > 100 µM | TGI (XF 498 CNS): 25.7 µM |
| CC[C@@]12C=CCN3CC[C@]4(c5cc(NC(=O)COc6cc(OCC(=O)Nc7cc8c(cc7OC)N(C)[C@H]7[C@@](O)(C(=O)OC)[C@H](OC(C)=O)[C@]9(CC)C=CCN%10CC[C@]87[C@@H]%109)cc7oc(-c8ccccc8)cc(=O)c67)c(OC)cc5N(C)[C@@H]4[C@](O)(C(=O)OC)[C@H]1OC(C)=O)[C@H]32 | 57.5 µM | > 100 µM | – | – | – | – | – | – |
| CCOC(=O)c1c(-c2ccccc2)c(C(OC(c2ccccc2)c2c(-c3ccccc3)c(C(=O)OCC)n3ccccc23)c2ccccc2)c2ccccn12 (stereo not given) | – | – | – | > 100 µM | > 100 µM | > 100 µM | > 100 µM | TGI (XF 498 CNS): > 100 µM |
| Clc1ccc2c(c1)C(N1CCNCC1)=Nc1ccccc1O2 | 1.91 µM | 4.58 µM | – | – | – | – | – | – |
| CC(C)(C)n1cc(-c2ccnc(NCCCNS(=O)(=O)c3ccc(Br)cc3)c2)c(-c2cccc(O)c2)n1 | 2.48 µM | 8.12 µM | – | – | – | – | – | – |
| COc1cc(C2c3cc4c(cc3[C@@H](N(C)C)[C@H]3COC(=O)C23)OCO4)cc(OC)c1O (stereo not given in full) | – | – | – | > 100 µM | 54.1 µM | > 100 µM | – | TGI (RXF-631 renal): > 100 µM; TGI (XF 498 CNS): > 100 µM |
| COc1ccccc1NC(=O)C1=C(C)NC(C)=C(C(=O)Nc2ccccc2OC)C1c1ccc(N(C)C)cc1 | – | – | > 100 µM | > 100 µM | 96.8 µM | – | 81.1 µM | TGI (XF 498 CNS): 57.1 µM |
| COC(=O)C1Cc2c([nH]c3ccccc23)C(c2ccccc2O)N1Cc1ccccc1 (stereo not given) | – | – | > 46.4 µM | 43.9 µM | > 46.4 µM | > 31.6 µM | > 46.4 µM | TGI (RXF-631 renal): 45.3 µM |
| Cc1cc(=O)oc2cc(OC(=O)N(CCCl)CCCl)ccc12 | – | > 100 µM | – | – | – | – | – | TGI (MDA-N): > 100 µM |
| O=C(Nc1ccc(Br)cc1)Nc1nn(C(=O)Nc2ccc(Br)cc2)c2ccccc12 | 28.1 µM | > 93 µM | – | – | – | – | – | – |
| CC1=NOC(=O)C1N=Nc1ccc(Br)c(C)c1 (stereo not given) | – | – | 35.6 µM | 29.1 µM | > 100 µM | 45.6 µM | 62.8 µM | TGI (XF 498 CNS): 31.7 µM |
| Clc1ccc2ns[s+]c2c1 | – | 92 µM | > 100 µM | > 100 µM | > 100 µM | > 100 µM | > 100 µM | TGI (MDA-N): > 100 µM; TGI (XF 498 CNS): > 100 µM |
| NNS(=O)(=O)c1cc(C(=O)O)cc(C(=O)O)c1 | – | > 100 µM | – | – | – | – | – | TGI (MDA-N): > 100 µM |

| Compound | GI50 (T-47D breast) | TGI (T-47D breast) | TGI (M19-MEL melanoma) | TGI (LXFL 529 NSCLC) | TGI (KM20L2 colon) | TGI (DMS 273 small cell lung) | TGI (SNB-78 CNS) | also measured |
| --- | --- | --- | --- | --- | --- | --- | --- | --- |
| CN1C(=O)C2C=CC1C1CCC2N(C)C1=O (stereo not given) | – | – | > 100 µM | > 100 µM | – | > 100 µM | > 100 µM | TGI (RXF-631 renal): > 100 µM |
| COC(=O)[C@]1(C)C(OC)=CC(=O)C2C1[C@H]1CCC[C@@H]21 (stereo not given in full) | – | – | > 100 µM | > 100 µM | > 100 µM | – | > 100 µM | TGI (XF 498 CNS): > 100 µM |
| COC(=O)[C@H]1[C@H]2C[C@@H]3c4[nH]c5cc(OC)ccc5c4CCN3C[C@H]2C[C@@H](OC(=O)/C=C/c2cc(OC)c(OC)c(OC)c2)[C@@H]1OC | 3.15 µM | 9.54 µM | – | – | – | – | – | – |
| Cc1cnc(Nc2ccc(OCCN3CCCC3)cc2)nc1Nc1cccc(S(=O)(=O)NC(C)(C)C)c1 | 2.13 µM and 2.11 µM | 24.2 µM and > 10 µM | – | – | – | – | – | – |
| CCOC(=O)c1c2c(n(Cc3ccccc3)c1C)-c1nc(Cc3ccccc3)[nH]c1C(=O)C2=O | 0.496 µM | 2.64 µM | – | – | – | – | – | – |
| COC(=O)C(CC(=O)c1c[nH]c2ccccc12)c1c[nH]c2ccccc12 (stereo not given) | – | – | > 10 µM | – | 34 µM | 27.6 µM | 58.2 µM | TGI (RXF-631 renal): 31.5 µM; TGI (XF 498 CNS): 31.8 µM |
| [N-]=[N+]=CC(=O)COC(=O)c1ccccc1 | – | > 100 µM | – | – | – | – | – | TGI (MDA-N): > 100 µM |
| C[C@]12CC[C@H]3[C@@H](CC[C@]4(O)C[C@@H](O)CC[C@]34CO)[C@@]1(O)CC[C@@H]2C1=CC(=O)OC1 | – | 13.9 µM | – | – | – | – | – | TGI (MDA-N): 14.4 µM |
| Nc1nc(N)nc(CC(=O)O)n1 | – | > 100 µM | – | – | – | – | – | TGI (MDA-N): > 100 µM |
| Clc1ccc2c(c1)[nH]c1c2nc2sccn21 | – | – | > 100 µM | > 100 µM | > 100 µM | > 100 µM | > 100 µM | TGI (RXF-631 renal): > 100 µM; TGI (XF 498 CNS): > 100 µM |
| COc1cc2c(c(OC)c1OC)-c1ccc(O)c(=O)cc1[C@@H](NC(C)=O)CC2 | 8.84 µM | > 100 µM | – | – | – | – | – | TGI (MDA-N): 34.4 µM |
| COc1cc(/C=C/c2ccc(OC)c(OC)c2OC)cc(OC)c1OC | – | – | 51 µM | 54.9 µM | 55.3 µM | 41 µM | 46.4 µM | TGI (RXF-631 renal): 51.2 µM; TGI (XF 498 CNS): 72.3 µM |
| CN(C)CCCc1c2ccccc2nc2ccc(Cl)cc12 | – | > 100 µM | – | – | – | – | – | – |
| CCC[CH2][Sn]1([CH2]CCC)[O]C(=O)c2ccc(N)cc2[O]1 | – | – | 1.66 µM | 0.248 µM | 3.17 µM | 2.56 µM | 1.18 µM | GI50 (MDA-N): 0.668 µM; TGI (MDA-N): 1.97 µM; GI50 (DMS 273 small cell lung): 1.04 µM; GI50 (LXFL 529 NSCLC): 0.0365 µM; GI50 (KM20L2 colon): 1.57 µM; GI50 (SNB-78 CNS): 0.0801 µM |
| O=C(N/N=C/c1ccc(Cl)cc1)c1[nH]c2ccc(Cl)cc2c1-c1ccccc1 | 38.2 µM | > 100 µM | – | – | – | – | – | – |
| ClCc1ccc(C2OCCO2)cc1 | – | – | 37.8 µM | 37.2 µM | > 69 µM | 45.3 µM | > 31.6 µM | TGI (RXF-631 renal): > 100 µM; TGI (XF 498 CNS): 33.3 µM |
| CC[C@H](Nc1nc(N)nc(C2CC2)c1C#N)c1nc2cccc(NCc3ccc(C(=O)NO)cc3)c2c(=O)n1-c1ccccc1 | 1.82 µM | 5.78 µM | – | – | – | – | – | – |
| O=c1cc(-c2ccccn2)[nH]c2cc(F)ccc12 | – | – | > 100 µM | > 100 µM | > 100 µM | – | > 100 µM | TGI (RXF-631 renal): > 100 µM |
